Source: US4510307A, “6-Quinazolinesulfonyl derivatives and process for preparation thereof” (Asahi Kasei Kogyo Kabushiki Kaisha, priority 1980, dated 1985)

Tests used:
mesenteric artery = assay: Relaxation of Mesenteric Artery (isolated rabbit mesenteric artery contracted with KCl); conditions: Oryctolagus cuniculus, concentration for 50% relaxation, KCl 15~20 mM contraction, read-out: Relaxation of Mesenteric Artery ED50
Protocol: When, for example, 1-[4-(N-methyl-N-cyclohexylamino)-6-quinazolinesulfonyl]-4-(2-ethoxy-2-phenylethyl)piperazine was added and a complete relaxation was designated 100%, the concentration which could bring about a relaxation of 50%, i.e., ED50 was 0.8 μM.
After a home bred rabbit of a Japanese species weighing about 3 Kg was subjected to bloodletting, resulting in death and then to abdominal incision, the mesenteric artery was taken out, cut into helicoids of 2 mm×25 mm and suspended in a 20 ml organ bath filled with a Krebs-Henseleit solution into which a mixed gas of 95% by volume of O2 and 5% by volume of CO2 was introduced and one end of the artery was connected with an isometric transducer. When a load of 1.5 g was applied to the artery, the contraction and the relaxation of the artery was recorded as a weight on the transducer (a product of Nippon Koden K.K., Japan, "FD Pickup TB-912T"). The relaxation of the mesenteric artery was observed by adding the 6-quinazolinesulfonyl derivatives and their pharmaceutically acceptable acid addition salts to the mesenteric artery at the condition of about one half of the maxinum contraction with KCl at a KCl concentrantion of 15~20 mM. When the complete relaxation of the mesenteric artery was designated 100%, the concentration of the 6-quinazolinesulfonyl derivatives and their pharmaceutically acceptable acid addition salts which brought about a relaxation of 50% is shown in Table 6.

[1] = Acute toxicity, intravenous administration in mice; conditions: mouse, in vivo, male ddY-strain mice
Protocol: Furthermore, when the 6-quinazolinesulfonyl derivatives and the pharmaceutically acceptable acid addition salts of this invention are intravenously and arterially administered for the above described purposes, any remarkable toxicity cannot be observed.
The acute toxicity of the 6-quinazolinesulfonyl derivatives and their pharmaceutically acceptable acid addition salts was measured by giving male ddY-strain mice an intravenous administration.

femoral artery = assay: Effect on blood flow volume of femoral artery of dog; type: in vivo, dog of mixed breed; conditions: Canis lupus familiaris; 1 mg/Kg intravenous; anesthetized dog; read-out: Increased Blood Flow Volume in Femoral Artery
Protocol: (§1) The effect of the 6-quinazolinesulfonyl derivatives and the pharmaceutically acceptable acid addition salts of this invention on the vasodilation of the femoral and vertebral arteries can be measured by anesthetizing a dog of mixed breed weighing 8 to 15 Kg by an intravenous administration of 35 mg/Kg of pentbarbital, providing an acute type probe (a product of Nippon Koden K.K., Japan) with the femoral and vertebral arteries, administering the 6-quinazolinesulfonyl derivatives and the pharmaceutically acceptable acid addition salts to the femoral vein through a polyethylene tube inserted into the femoral vein side chain and measuring the blood flow volume with an electromagnetic flowmeter (a product of Nippon Koden K.K., Japan, "MF-27"). For example, when 1 mg/Kg of 1-[4-(N-methyl-N-cyclohexylamino)-6-quinazolinesulfonyl]-4-(2-ethoxy-2- phenylethyl)piperazine was intravenously administered, the increased blood flow volume in the femoral artery was 33% and the increased blood flow volume in the vertebral artery was 59%.
(§2) The effect on the vasodilatation of the femoral and vertebral arteries was measured by anesthetizing a dog of mixed breed weighing 8 to 15 Kg by an intravenous administration of 35 mg/Kg of pentbarbital, providing an acute type probe (a product of Nippon Koden K.K., Japan) with the femoral and vertebral arteries, administering the 6-quinazolinesulfonyl derivatives and their pharmaceutically acceptable acid addition salts to the femoral vein through a polyethylene tube inserted into the femoral vein side chain and measuring the blood flow volume with an electromagnetic blood flowmeter (a product of Nippon Koden K.K., Japan, "MF-27").

[2] = system: human blood platelet cAMP PDE; assay: PDE inhibition, c-AMP-decomposing PDE of human blood platelet; type: biochemical; conditions: human blood platelet cAMP PDE specimen; read-out: PDE Inhibition I50, Human Blood Platelet (PII)
Description: (§3) More specifically, from the results of the experiment using an enzyme specimen in accordance with the reports [Mol. Pharmacol., 15, 49 (1979) and Biochem. Biophys. […] The 6-quinazolinesulfonyl derivatives and the pharmaceutically acceptable acid addition salts have inhibited the decomposition due to the enzyme specimens of substrate c-AMP and guanosine-3',5'-monophosphate (abbreviated "c-GMP"). This means that the compounds of this invention can inhibit the decomposition of the c-AMP and maintain the c-AMP in tissue at a high concentration. In other words, the compounds of this invention are effective for the improvement and medical treatment of a disease accompanied by reduction in the c-AMP and a disease accompanied by infiltration of calcium into tissue, for example, the contraction and convulsion of vascular smooth muscle.
(§4) As the enzyme specimens, human blood platelet and hog cerebral cortex were partially purified in accordance with reports [Mol. Pharmacol., 15, 49 (1979) and Biochem. Biophys. Res. Comun., 84, 277 (1978)]. The effect of the 6-quinazolinesulfonyl derivatives and their pharmaceutically acceptable acid addition salts of this invention on the c-AMP-decomposing PDE and the calmodulin or calcium-dependent cyclic nucleotide PDE was examined under the conditions in accordance with the above described reports. […] The activity of the compounds of this invention is expressed by the concentration which is required to inhibit 50% of the decomposition of the c-AMP-decomposing PDE, i.e., I50 by μM.
*^1 The human blood platelet cAMP PDE specimen was employed.

vertebral artery = assay: Effect on blood flow volume of vertebral artery of dog; type: in vivo, dog of mixed breed; conditions: Canis lupus familiaris; 1 mg/Kg intravenous; anesthetized dog; read-out: Increased Blood Flow Volume in Vertebral Artery
Protocol: as §1, §2

[3] = system: hog cerebral cortex calmodulin or calcium-dependent cyclic nucleotide PDE; assay: PDE inhibition, calmodulin or calcium-dependent cyclic nucleotide PDE of hog cerebral cortex; type: biochemical
Description: as §3, §4
*^2 The enzyme activity was measured by using calmodulin and Ca^+
dependent specimens. The nonactivation was measured in the presence of
0.2 mM of EGTA, while the activation was measured in the presence of 0.2
mM of CaCl2 and 8 units of calmodulin.

Structure (SMILES) | EC50 (mesenteric artery) | other results
CCOC(CN1CCN(S(=O)(=O)c2ccc3ncnc(N)c3c2)CC1)c1ccccc1 (stereo not drawn) [Compound (1), 1-(4-amino-6-quinazolinesulfonyl)-4-(2-ethoxy-2-phenylethyl)piperazine] | 9.8 µM | –
CCOC(CN1CCN(S(=O)(=O)c2ccc3ncnc(N(C)C)c3c2)CC1)c1ccccc1 (stereo not drawn) [Compound (2), 1-(4-dimethylamino-6-quinazolinesulfonyl)-4-(2-ethoxy-2-phenylethyl)-piperazine] | 4.5 µM | –
CCOC(CN1CCN(S(=O)(=O)c2ccc3ncnc(N(CC)CC)c3c2)CC1)c1ccccc1 (stereo not drawn) [Compound (3), 1-(4-diethylamino-6-quinazolinesulfonyl)-4-(2-ethoxy-2-phenylethyl)-piperazine] | 5 µM | –
CCCCN(CCCC)c1ncnc2ccc(S(=O)(=O)N3CCN(CC(OCC)c4ccccc4)CC3)cc12 (stereo not drawn) [Compound (4), 1-(4-dibutylamino-6-quinazolinesulfonyl)-4-(2-ethoxy-2-phenylethyl)-piperazine] | 1.3 µM | LD50 [1]: 135 mg/kg; change in vivo at 1 mg/kg (femoral artery): 33%; IC50 [2]: 950 µM; change in vivo at 1 mg/kg (vertebral artery): 50%; IC50 ([3]; activated: 0.2 mM CaCl2 and 8 units of calmodulin, read-out: PDE Inhibition I50, Hog Cerebral Cortex (PII), Activated): 370 µM; PDE Inhibition I50, Hog Cerebral Cortex (PII), Non-activated ([3]; non-activated: presence of 0.2 mM EGTA): not inhibited
COC(CN1CCN(S(=O)(=O)c2ccc3ncnc(N4CCCCC4)c3c2)CC1)c1ccccc1 (stereo not drawn) [Compound (5), 1-(4-piperidino-6-quinazolinesulfonyl)-4-(2-methoxy-2-phenylethyl)-piperazine] | 5.8 µM | –
CC(C)OC(CN1CCN(S(=O)(=O)c2ccc3ncnc(N4CCCCC4)c3c2)CC1)c1ccccc1 (stereo not drawn) [Compound (7), 1-(4-piperidino-6-quinazolinesulfonyl)-4-(2-isopropoxy-2-phenylethyl)-piperazine] | 2.2 µM | –
CC(C)COC(CN1CCN(S(=O)(=O)c2ccc3ncnc(N4CCCCC4)c3c2)CC1)c1ccccc1 (stereo not drawn) [Compound (8), 1-(4-piperidino-6-quinazolinesulfonyl)-4-(2-isobutoxy-2-phenylethyl)-piperazine] | 10.7 µM | –
CCOC(CN1CCN(S(=O)(=O)c2ccc3ncnc(N4CCOCC4)c3c2)CC1)c1ccccc1 (stereo not drawn) [Compound (14), 1-(4-morpholino-6-quinazolinesulfonyl)-4-(2-ethoxy-2-phenylethyl)-piperazine] | 9.5 µM | –
CCOC(CN1CCN(S(=O)(=O)c2ccc3ncnc(NC4CCCCC4)c3c2)CC1)c1ccccc1 (stereo not drawn) [Compound (15), 1-(4-cyclohexylamino-6-quinazolinesulfonyl)-4-(2-ethoxy-2-phenylethyl)-piperazine] | 1.6 µM | –
CCOC(CN1CCN(S(=O)(=O)c2ccc3ncnc(Nc4ccccc4)c3c2)CC1)c1ccccc1 (stereo not drawn) [Compound (16), 1-(4-anilino-6-quinazolinesulfonyl)-4-(2-ethoxy-2-phenylethyl)piperazine] | 2.7 µM | –
CCOC(CN1CCN(S(=O)(=O)c2ccc3ncnc(NCc4ccccc4)c3c2)CC1)c1ccccc1 (stereo not drawn) [Compound (17), 1-(4-benzylamino-6-quinazolinesulfonyl)-4-(2-ethoxy-2-phenylethyl)-4-(2-ethoxy-2-phenylethyl)piperazine] | 3.2 µM | –
CCOC(CN1CCN(S(=O)(=O)c2ccc3ncnc(N(C)C4CCCC4)c3c2)CC1)c1ccccc1 (stereo not drawn) [Compound (18), 1-[4-(N-methyl-N-cyclopentylamino)-6-quinazolinesulfonyl]-4-(2-ethoxy-2-phenylethyl)piperazine] | 1.4 µM | –
CCOC(CN1CCN(S(=O)(=O)c2ccc3ncnc(N(C)C4CCCCCC4)c3c2)CC1)c1ccccc1 (stereo not drawn) [Compound (20), 1-[4-(N-methyl-N-cycloheptylamino)-6-quinazolinesulfonyl]-4-(2-ethoxy-2-phenylethyl)piperazine] | 3.7 µM | –
CCOC(CN1CCN(S(=O)(=O)c2ccc3ncnc(N(CC(C)C)C4CCCCC4)c3c2)CC1)c1ccccc1 (stereo not drawn) [Compound (22), 1-[4-(N-isobutyl-N-cyclohexylamino)-6-quinazolinesulfonyl]-4-(2-ethoxy-2-phenylethyl)piperazine] | 2.5 µM | –
COC(CN1CCN(S(=O)(=O)c2ccc3ncnc(N(C)C4CCCCC4)c3c2)CC1)c1ccccc1 (stereo not drawn) [Compound (26), 1-[4-(N-methyl-N-cyclohexylamino)-6-quinazolinesulfonyl]-4-(2-methoxy-2-phenylethyl)piperazine] | 1.4 µM | –
CC(C)OC(CN1CCN(S(=O)(=O)c2ccc3ncnc(N(C)C4CCCCC4)c3c2)CC1)c1ccccc1 (stereo not drawn) [Compound (27), 1-[4-(N-methyl-N-cyclohexylamino)-6-quinazolinesulfonyl]-4-(2-isopropoxy-2-phenylethyl)piperazine] | 0.9 µM | –
CC(C)COC(CN1CCN(S(=O)(=O)c2ccc3ncnc(N(C)C4CCCCC4)c3c2)CC1)c1ccccc1 (stereo not drawn) [Compound (28), 1-[4-(N-methyl-N-cyclohexylamino)-6-quinazolinesulfonyl]-4-(2-isobutoxy-2-phenylethyl)piperazine] | 1.3 µM | –
NCCNS(=O)(=O)c1ccc2ncnc(N3CCCCC3)c2c1 [Compound (29), N-(2-aminoethyl)-4-piperidino-6-quinazolinesulfonamide] | 33 µM | –
NCCCNS(=O)(=O)c1ccc2ncnc(N3CCCCC3)c2c1 [Compound (30), N-(3-aminopropyl)-4-piperidino-6-quinazolinesulfonamide] | 30 µM | –
NCCCCCCCCCCNS(=O)(=O)c1ccc2ncnc(N3CCCCC3)c2c1 [Compound (33), N-(10-aminodecyl)-4-piperidino-6-quinazolinesulfonamide] | 34 µM | –
NCCCCNS(=O)(=O)c1ccc2ncnc(N3CCCC3)c2c1 [Compound (34), N-(4-aminobutyl)-4-(1-pyrrolidinyl)-6-quinazolinesulfonamide] | 27 µM | –
CN(C)c1ncnc2ccc(S(=O)(=O)NCCCCN)cc12 [Compound (35), N-(4-aminobutyl)-4-dimethylamino-6-quinazolinesulfonamide] | 54 µM | –
CCN(CC)c1ncnc2ccc(S(=O)(=O)NCCCCN)cc12 [Compound (36), N-(4-aminobutyl)-4-diethylamino-6-quinazolinesulfonamide] | 50 µM | –
CCCCCCN(CCCCCC)c1ncnc2ccc(S(=O)(=O)NCCCCN)cc12 [Compound (38), N-(4-aminobutyl)-4-dihexylamino-6-quinazolinesulfonamide] | 12 µM | –
